Measurements from patent publication US6639089B2, “Anticancer agents, perfumes or foods and drinks” (Soda Aromatic Co., Ltd., priority 2001, dated 2003).
Where two headings read alike, the source gives them in different places.

Key:
[1] = test system: melanoma cell line B16BL6; test: Cancer cell mobility test (cancer invasion inhibitory action), Boyden double chamber with Matrigel/fibronectin; assay type: cell-based; settings: for Tumor Invasion (cell/mm^2) 5 μM / Tumor Invasion (cell/mm^2) 20 μM: administered to cells 18 hours in advance, B16BL6, counted after 3.5 hours; for activity at 20 µM: Mus musculus
Protocol: (§1) A Boyden double chamber was used, in which a porous film with 8 μm pores was placed, the upper surface of the porous film being coated with Matrigel as a reconstructed membrane, the lower surface of the porous film being coated with fibronectin as an extracellular matrix. In the upper compartment of the chamber, 200,000 cells of melanoma cell line B16BL6, a type of skin cancer, were inoculated, and after 3.5 hours, Diff Quick staining was performed and the number of invasive cancer cells invading the lower compartment was counted using a CCD camera/multibioscanner. The compounds of the present invention were administered to cancer cells for 18 hours in advance at amounts of 5 μM and 20 μM.

[2] = test system: Rat spontaneous mammary cancer cells (SST-2); test: Cancer metastasis inhibitory action test (in vivo), lung metastasis of subcutaneously implanted SST-2; settings: day 7 pre-implant to day 34 post-implant; for Average number of metastatic colonies formed: lung, after 35 days; for Lung weight / Subcutaneous tumor weight: sacrifice after 35 days
Protocol: Rat spontaneous mammary cancer cells (SST-2) (1×10^5 cells) were subcutaneously implanted in the backs of Wister male rats (5 rats for each group). After 35 days, the rats were sacrificed, and the lung weight and the number of colonies formed were measured to observe the extent of lung metastasis of the SST-2. With respect to the groups to which 5-cyclohexadecen-1-one as the compound of the present invention was administered, 20 mg/rat and 5 mg/rat were orally administered and subcutaneously injected, from day 7 pre-implant to day 34 post-implant, and the subcutaneous tumor weight, the lung weight, and the number of metastatic colonies formed were compared with those of the control group, to which no treatment was provided.

[3] = test system: adenocarcinoma 755 cell line; test: Test for action of killing cancer (in vivo), subcutaneous tumor weight; parameters: species or system mice; settings: subcutaneous injection daily at 10 mg/kg for 5 days; tumors excised day 10 post-implant; control group 9.0 g
Protocol: In the backs of 6-week-old mice (first filial hybrid of C57BL/6 and DBA/2), 10^6 cells of adenocarcinoma 755 cell line were subcutaneously implanted. After 24 hours, a solution in which each sample was suspended, at a concentration of 50 mg/ml, in a physiological saline solution of 0.25% surfactant Nikkol HCO-60 (manufactured by Nikko Chemicals Co., Ltd.; polyoxyethylene (40) hydrogenated castor oil), was subcutaneously injected into a group of 8 mice, daily at 10 mg/kg for 5 days. On day 10 post-implant of adenocarcinoma 755 cells, the mice were sacrificed and tumors were excised. The average weight (g) of the tumors was obtained. As a result, the average weight of the control group was 9.0 g, while the average weight of the group to which 5-cyclohexadecen-1-one had been administered was as small as 1.9 g. The significant action of killing cancer was thus confirmed.

[4] = test system: B-16 melanoma cell line BL; test: Cancer metastasis inhibitory action test (in vivo), lung metastasis after caudal vein injection of melanoma cells; settings: lungs on day 14, mean of 6 mice
Protocol: Cancer cells of B-16 melanoma cell line BL were incubated in a 5% CO2 incubator using an MEM culture medium (containing 10% FBS), and the individual cells were dissociated with a 2.5% trypsin solution. The melanoma cells were injected into the caudal vein of BDF1 mice (SPF). The number of cells injected was 2×10^5/0.2 ml/mouse. As test compounds for cancer metastasis inhibitory action, 15-hydroxypentadecanoic acid, 15-pentadecanolide, and 5-cyclohexadecen-1-one were used, and as a positive control compound, Mitomycin Kyowa S (manufactured by Kyowa Hakko Kokyo Co., Ltd.) was used. The test compounds and the positive control compound were dissolved or suspended in olive oil and administered as shown in Table 5 below. (In the case of intravenous administration, micellisation was performed using Tween before administration.) The dosage of the test compounds was 100 mg/kg each time in the case of peritoneal administration, and 10 mg/kg each time in the case of intravenous administration. The dosage of Mitomycin Kyowa S as the positive control compound was 0.5 mg/kg each time by peritoneal administration.
From day 10 post-implant onward, metastatic cancer cells of mice in the satellite group were observed, and on day 14 when the size of the cells was believed to be suitable for evaluation, the mice were sacrificed and the lungs were enucleated. The number of metastatic cancer cells was then counted.

[5] = test system: human fibrosarcoma cell line HT1080; test: Cancer cell mobility test (cancer invasion inhibitory action), Boyden double chamber with Matrigel/fibronectin; assay type: cell-based; settings: for Tumor Invasion (cell/mm^2) 5 μM / Tumor Invasion (cell/mm^2) 10 μM: administered to cells 18 hours in advance, HT1080, counted after 3.5 hours; for Cell Invasion Rate at 10 μM (%): relative to no addition = 100%, lower value = higher inhibition
Protocol: as §1, with “of human fibrosarcoma” for “of melanoma”, “line HT1080” for “line B16BL6, a type of skin cancer,”, “and 10” for “and 20”

[6] = test system: melanoma cell line B16BL6; settings: comparison derivatives of L-ascorbic acid (JP-A-8-291075); cited from earlier work
[7] = B16-BL6, 20 μM, relative to no addition = 100%, lower value = higher inhibition, read-out: Cell Invasion Rate at 20 μM (%)
[8] = Subcutaneous injection 5 mg/rat
[9] = Subcutaneous injection 20 mg/rat
[10] = Peritoneal administration, 100 mg/kg each time
[11] = B16-BL6, read-out: Cell Invasion Rate at 20 μM (%)

O=C1CCCC=CCCCCCCCCCC1 [5-cyclohexadecen-1-one]
Tumor Invasion (cell/mm^2) 5 μM [1]: 285 ± 36 cell/mm^2 | Tumor Invasion (cell/mm^2) 20 μM ([1]; 20 μM): 143 ± 14 cell/mm^2 | activity at 20 µM [1, 7]: 31.6% | Average number of metastatic colonies formed ([2]; Oral administration 5 mg/rat): 28.4 | Lung weight ([2]; Oral administration 5 mg/rat): 1.5 g | Subcutaneous tumor weight ([2]; Oral administration 5 mg/rat): 46.4 g | Average number of metastatic colonies formed ([2]; Oral administration 20 mg/rat): 17.5 | Lung weight ([2]; Oral administration 20 mg/rat): 1.4 g | Subcutaneous tumor weight ([2]; Oral administration 20 mg/rat): 44.7 g | Average number of metastatic colonies formed [2, 8]: 15.7 | Lung weight [2, 8]: 1.3 g | Subcutaneous tumor weight [2, 8]: 43.5 g | Average number of metastatic colonies formed [2, 9]: 10.9 | Lung weight [2, 9]: 1.1 g | Subcutaneous tumor weight [2, 9]: 42.0 g | average weight of the tumors [3]: 1.9 g | Number of metastatic cells [4, 10]: 35.6

O=C1CCCCCCCCCCCCCCO1 [15-pentadecanolide]
Tumor Invasion (cell/mm^2) 5 μM [1]: 386 ± 26 cell/mm^2 | Tumor Invasion (cell/mm^2) 20 μM ([1]; 20 μM): 324 ± 27 cell/mm^2 | activity at 20 µM [1, 7]: 64.4% | Number of metastatic cells ([4]; Intravenous administration, 10 mg/kg each time, 3 times on day of implantation): 52.2 | Number of metastatic cells [4, 10]: 134.3

O=C1CCCCCCCCCCCC(=O)OCCO1 [Ethylene tridecanedioate]
Tumor Invasion (cell/mm^2) 5 μM [5]: 226 cell/mm^2 | Tumor Invasion (cell/mm^2) 10 μM [5]: 84 cell/mm^2 | Cell Invasion Rate at 10 μM (%) [5]: 16.0%

CCCCCCCCCCCCCCCC(=O)OC[C@H](O)[C@H]1OC(=O)C(O)=C1O [L-ascorbyl 6-O-palmitate]
concentration at which a 25% cancer cell invasion inhibition was obtained [6]: approximately 110 μM

O=C1CCCCCCCCCCCO1 [12-dodecanolide]
Tumor Invasion (cell/mm^2) 5 μM [1]: 405 ± 38 cell/mm^2 | Tumor Invasion (cell/mm^2) 20 μM ([1]; 20 μM): 461 ± 67 cell/mm^2 | activity at 20 µM [1, 7]: 91.7%

CCOC(=O)CCCCCCCCCC=CCCCO [ethyl-15-hydroxy-11(12)-pentadecenoate]
Tumor Invasion (cell/mm^2) 5 μM [5]: 129 cell/mm^2 | Tumor Invasion (cell/mm^2) 10 μM [5]: 106 cell/mm^2 | Cell Invasion Rate at 10 μM (%) [5]: 28.6%

12-oxahexadecen-16-olide
Tumor Invasion (cell/mm^2) 5 μM [5]: 218 cell/mm^2 | Tumor Invasion (cell/mm^2) 10 μM [5]: 109 cell/mm^2 | Cell Invasion Rate at 10 μM (%) [5]: 20.8%

O=C1O[C@H]([C@@H](O)CO)C(O)=C1OP(=O)(O)O [L-ascorbyl 2-phosphate]
concentration at which a 25% cancer cell invasion inhibition was obtained [6]: approximately 280 μM

CO[C@@]12[C@H](COC(N)=O)C3=C(C(=O)C(C)=C(N)C3=O)N1C[C@@H]1N[C@@H]12 [Mitomycin, reference compound]
Number of metastatic cells ([4]; Peritoneal administration, 0.5 mg/kg each time, 3 times on day of implantation): 21.2

O=C(O)CCCCCCCCCCCC(=O)CCCO [16-hydroxy-13-oxohexadecanoic acid]
Tumor Invasion (cell/mm^2) 5 μM [5]: 214 cell/mm^2 | Tumor Invasion (cell/mm^2) 10 μM [5]: 121 cell/mm^2 | Cell Invasion Rate at 10 μM (%) [5]: 31.8%

O=C1CCCCCCCC=CCCCCCCO1 [9-hexadecen-16-olide]
Tumor Invasion (cell/mm^2) 5 μM [1]: 257 ± 42 cell/mm^2 | Tumor Invasion (cell/mm^2) 20 μM ([1]; 20 μM): 113 ± 19 cell/mm^2 | activity at 20 µM [1, 7]: 22.5%

O=C(O)CCCCCCCCCCCO [12-hydroxydodecanoic acid]
Tumor Invasion (cell/mm^2) 5 μM [1]: 324 ± 23 cell/mm^2 | Tumor Invasion (cell/mm^2) 20 μM ([1]; 20 μM): 246 ± 30 cell/mm^2 | activity at 20 µM [1, 11]: 48.9%

O=C(O)CCCCCCCCCCC(=O)CCCO [15-hydroxy-12-oxopentadecanoic acid]
Tumor Invasion (cell/mm^2) 5 μM [1]: 268 ± 34 cell/mm^2 | Tumor Invasion (cell/mm^2) 20 μM ([1]; 20 μM): 119 ± 25 cell/mm^2 | activity at 20 µM [1, 7]: 23.7%

O=C1CCCCCCCCCCCCCCCO1 [16-hexadecanolide]
Tumor Invasion (cell/mm^2) 5 μM [1]: 370 ± 62 cell/mm^2 | Tumor Invasion (cell/mm^2) 20 μM ([1]; 20 μM): 293 ± 43 cell/mm^2 | activity at 20 µM [1, 7]: 58.3%

CCCCCCCCCCCC1CCCC(=O)O1 (centres unmarked) [5-hexadecanolide]
Tumor Invasion (cell/mm^2) 5 μM [5]: 144 cell/mm^2 | Tumor Invasion (cell/mm^2) 10 μM [5]: 111 cell/mm^2 | Cell Invasion Rate at 10 μM (%) [5]: 27.5%

11(12)-pentadecen-15-olide
Tumor Invasion (cell/mm^2) 5 μM [1]: 234 ± 17 cell/mm^2 | Tumor Invasion (cell/mm^2) 20 μM ([1]; 20 μM): 146 ± 31 cell/mm^2 | Cell Invasion Rate at 20 μM (%) ([1]; 20 μM, relative to no addition = 100%, lower value = higher inhibition): 29.0%

O=C(O)CCCCCCCCCCCCCCCO [16-hydroxyhexadecanoic acid]
Tumor Invasion (cell/mm^2) 5 μM [1]: 301 ± 47 cell/mm^2 | Tumor Invasion (cell/mm^2) 20 μM ([1]; 20 μM): 199 ± 32 cell/mm^2 | activity at 20 µM [1, 11]: 39.6%

O=C(O)CCCCCCCCCCCCCCO [15-hydroxypentadecanoic acid]
Tumor Invasion (cell/mm^2) 5 μM [1]: 289 ± 45 cell/mm^2 | Tumor Invasion (cell/mm^2) 20 μM ([1]; 20 μM): 135 ± 11 cell/mm^2 | activity at 20 µM [1, 7]: 26.8% | Number of metastatic cells [4, 10]: 78.0

O=C1CCCCCCCCCCCCCC1 [Cyclopentadecanone]
Tumor Invasion (cell/mm^2) 5 μM [1]: 459 ± 39 cell/mm^2 | Tumor Invasion (cell/mm^2) 20 μM ([1]; 20 μM): 491 ± 35 cell/mm^2 | activity at 20 µM [1, 11]: 109%

CNC(=O)[C@@H](NC(=O)[C@H](CC(C)C)[C@H](O)C(=O)NO)C(C)(C)C [Marimastat, reference compound]
Tumor Invasion (cell/mm^2) 5 μM [5]: 269 cell/mm^2 | Tumor Invasion (cell/mm^2) 10 μM [5]: 172 cell/mm^2 | Cell Invasion Rate at 10 μM (%) [5]: 42.6%
